{"source": "patent US6916783B2", "about": "“Methods for accelerating bone and cartilage growth and repair” (University of Southern California, priority 1998, dated 2005)", "key": {"[1]": {"system": "chondrocytes", "experiment": "Rabbit chondrocyte proliferation in culture", "assay_type": "cell-based", "details": "10 μg/ml peptide; days 1, 2, and 3 after culture initiation; nuclei counted after Giemsa stain; FIGS. 1-4", "protocol": "Chondrocytes were isolated from the cartilage of the knee joints of adult rabbits and cultured according to the method of Okazaki et al. (Ann. Rheum. Dis. 55:181-186, 1996). Briefly, cartilage explants were minced into small pieces (approximately 1.5 mm by 1.5 mm). The tissue pieces were digested at 37° C. sequentially in 0.05% hyaluronidase (415 U/mg protein) for 10 minutes, 0.2% Type III trypsin (10,000 U/mg protein, Sigma) and 0.53 mM EDTA for 15 minutes, and 0.2% Type I collagenase (136 U/mg protein, Sigma) for 30 minutes. The samples were then washed and incubated overnight at 37° C. in 5% CO2 in air in Dulbecco's modified Eagle's medium enriched with 10% fetal calf serum, 3.5 mg/ml glucose, 0.2% Type I collagenase and antibiotics (100 U/ml penicillin and 100 μg/ml streptomycin).\nAfter this incubation, the cells were harvested and washed once with phosphate buffered saline (pH 7.2). The cells were then counted with a hemacytometer and resuspended at 1×10^5 cells/ml in Ham's F12 supplemented with 10% fetal calf serum and antibiotics. A 10 ml aliquot of cells was transferred to collagen coated 25 cm^2 flasks (coated with collagen isolated from rat tail tendons) and incubated at 37° C. in 5% CO2 in air. […] Cell numbers were quantitated by staining the cells with Giemsa stain and counting the number of nuclei detected via microscopy."}, "[2]": {"target": "T1, AT2 receptor (Homo sapiens, UniProt P50052)", "T1 sequence (P50052 1-363)": "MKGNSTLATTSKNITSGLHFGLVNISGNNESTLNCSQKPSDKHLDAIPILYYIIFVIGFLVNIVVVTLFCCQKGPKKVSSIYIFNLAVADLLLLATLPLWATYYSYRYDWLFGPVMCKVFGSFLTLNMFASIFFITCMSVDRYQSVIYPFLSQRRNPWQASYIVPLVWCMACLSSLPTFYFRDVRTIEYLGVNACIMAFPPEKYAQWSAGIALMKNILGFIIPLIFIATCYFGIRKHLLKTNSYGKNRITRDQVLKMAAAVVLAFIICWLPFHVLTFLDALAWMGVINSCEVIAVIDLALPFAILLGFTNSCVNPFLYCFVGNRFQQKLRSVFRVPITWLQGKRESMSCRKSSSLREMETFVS", "details": "cited from earlier work"}, "[3]": {"experiment": "Effectiveness tests of AII fragments (method not described)", "details": "test not specified"}}, "note": "Entries after “also recorded” stand apart in the source; their conditions may differ."}
{"substance": "Asp-Arg-Val-Tyr-Ile-His-Pro-Phe (DRVYIHPF) [AII]", "values": [{"measurement": "effect on chondrocyte proliferation", "setting": "[1]", "value": "accelerated the chondrocyte proliferation"}, {"measurement": "times higher affinity for AT2 than AT1", "setting": "[2]", "value": 100, "unit": "times"}]}
{"substance": "His-Pro-Phe (HPF) [AII(6-8)]", "values": [{"measurement": "effectiveness in tests", "setting": "[3]", "value": "not to be effective"}]}
{"substance": "Tyr-Ile-His-Pro-Phe (YIHPF) [AII(4-8)]", "values": [{"measurement": "effectiveness in tests", "setting": "[3]", "value": "not to be effective; also recorded: ineffective in repeated tests"}]}
